Test results published in patent publication US11566007B2, “Ras inhibitors” (Revolution Medicines, Inc., priority 2019, dated 2023).
“And” between values parts separate entries of the source, which are not always exact repeats. Equal values may be shown once.

Key:
Type in all cases: biochemical
K-Ras G12C = K-Ras G12C (Homo sapiens (Human), UniProt P01116+P62937, G12C); assay: Ras-Raf (BRAF RBD) disruption / FRET / MOA assay, KRAS G12C; conditions: KRAS G12C; Ras-Raf disruption/FRET/MOA assay; read-out: IC50* KRAS G12C FRET data
Chain of K-Ras G12C (P01116-2 other isoform, or with tags, fused parts or gaps G12C): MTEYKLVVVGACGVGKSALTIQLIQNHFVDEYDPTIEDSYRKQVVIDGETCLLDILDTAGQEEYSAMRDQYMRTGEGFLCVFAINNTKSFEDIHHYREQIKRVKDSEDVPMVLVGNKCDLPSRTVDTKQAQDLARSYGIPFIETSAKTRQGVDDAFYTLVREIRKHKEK
Chain of K-Ras G12C (P62937 whole entry): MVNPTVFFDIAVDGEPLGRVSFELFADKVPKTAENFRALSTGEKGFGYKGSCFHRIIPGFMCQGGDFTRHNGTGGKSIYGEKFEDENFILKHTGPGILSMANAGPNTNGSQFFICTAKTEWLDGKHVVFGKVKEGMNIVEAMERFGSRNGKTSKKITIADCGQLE
In short: (§1)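 Compound-driven ternary complex of nucleotide-loaded Ras with cyclophilin A, disrupting BRAF RBD binding. 10-point 3-fold dilution from 30 μM final, 3 h at 25° C, then anti-His Eu-W1024 (10 nM) and anti-GST allophycocyanin (50 nM) for 1.5 h. IC50 from TR-FRET ratio decrease versus DMSO.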

K-Ras G13C = K-Ras G13C (Homo sapiens (Human), UniProt P01116+P62937, G13C); assay: Ras-Raf (BRAF RBD) disruption / FRET / MOA assay, KRAS G13C; conditions: KRAS G13C; Ras-Raf disruption/FRET/MOA assay; read-out: IC50* KRAS G13C FRET data
Chain of K-Ras G13C (P01116-2 other isoform, or with tags, fused parts or gaps G13C): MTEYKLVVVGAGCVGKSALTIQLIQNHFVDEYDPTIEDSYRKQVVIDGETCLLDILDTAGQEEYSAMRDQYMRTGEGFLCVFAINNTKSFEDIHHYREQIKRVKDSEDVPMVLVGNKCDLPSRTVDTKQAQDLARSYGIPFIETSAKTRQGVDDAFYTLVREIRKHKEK
Chain of K-Ras G13C (P62937 whole entry): as the sequence (P62937 whole entry) above
In short: as §1

KRAS G12S = KRAS G12S (Homo sapiens (Human), UniProt P01116+P62937, G12S); assay: Ras-Raf (BRAF RBD) disruption / FRET / MOA assay, KRAS G12S; conditions: Ras-Raf disruption/FRET/MOA assay; class symbols; read-out: KRAS G12S FRET data IC50
Chain of KRAS G12S (P01116-2 other isoform, or with tags, fused parts or gaps G12S): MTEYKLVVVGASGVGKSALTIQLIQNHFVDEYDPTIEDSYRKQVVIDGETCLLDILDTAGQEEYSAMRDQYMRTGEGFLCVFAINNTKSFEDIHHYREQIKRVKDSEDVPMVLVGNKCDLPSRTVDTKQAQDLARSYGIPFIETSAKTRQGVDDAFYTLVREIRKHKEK
Chain of KRAS G12S (P62937 whole entry): as the sequence (P62937 whole entry) above
In short: as §1

KRAS G12D = KRAS G12D (Homo sapiens (Human), UniProt P01116+P62937, G12D); assay: Ras-Raf (BRAF RBD) disruption / FRET / MOA assay, KRAS G12D; conditions: Ras-Raf disruption/FRET/MOA assay; class symbols; read-out: KRAS G12D FRET data IC50
Chain of KRAS G12D (P01116-2 other isoform, or with tags, fused parts or gaps G12D): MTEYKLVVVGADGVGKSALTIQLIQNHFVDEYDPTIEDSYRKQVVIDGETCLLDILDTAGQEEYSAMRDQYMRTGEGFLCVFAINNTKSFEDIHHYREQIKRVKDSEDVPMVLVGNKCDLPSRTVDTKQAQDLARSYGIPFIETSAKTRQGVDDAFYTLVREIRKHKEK
Chain of KRAS G12D (P62937 whole entry): as the sequence (P62937 whole entry) above
In short: as §1

KRAS G12V = KRAS G12V (Homo sapiens (Human), UniProt P01116+P62937, G12V); assay: Ras-Raf (BRAF RBD) disruption / FRET / MOA assay, KRAS G12V; conditions: read-out: IC50* KRAS G12V FRET data
Chain of KRAS G12V (P01116-2 other isoform, or with tags, fused parts or gaps G12V): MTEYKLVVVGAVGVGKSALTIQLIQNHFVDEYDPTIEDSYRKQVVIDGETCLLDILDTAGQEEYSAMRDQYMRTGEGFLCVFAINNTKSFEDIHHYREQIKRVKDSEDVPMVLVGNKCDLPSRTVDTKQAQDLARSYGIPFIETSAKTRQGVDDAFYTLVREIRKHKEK
Chain of KRAS G12V (P62937 whole entry): as the sequence (P62937 whole entry) above
In short: as §1

KRAS WT = KRAS WT (Homo sapiens (Human), UniProt P01116+P62937); assay: Ras-Raf (BRAF RBD) disruption / FRET / MOA assay, KRAS WT; conditions: read-out: IC50* KRAS WT FRET data
Chain of KRAS WT (P01116-2 other isoform, or with tags, fused parts or gaps): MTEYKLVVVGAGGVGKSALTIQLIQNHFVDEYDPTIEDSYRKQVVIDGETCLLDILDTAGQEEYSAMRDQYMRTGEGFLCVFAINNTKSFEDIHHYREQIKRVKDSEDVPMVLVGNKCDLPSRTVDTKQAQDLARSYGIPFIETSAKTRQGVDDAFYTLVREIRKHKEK
Chain of KRAS WT (P62937 whole entry): as the sequence (P62937 whole entry) above
In short: as §1

KRAS G13D = KRAS G13D (Homo sapiens (Human), UniProt P01116+P62937, G13D); assay: Ras-Raf (BRAF RBD) disruption / FRET / MOA assay, KRAS G13D; conditions: read-out: IC50* KRAS G13D FRET data
Chain of KRAS G13D (P01116-2 other isoform, or with tags, fused parts or gaps G13D): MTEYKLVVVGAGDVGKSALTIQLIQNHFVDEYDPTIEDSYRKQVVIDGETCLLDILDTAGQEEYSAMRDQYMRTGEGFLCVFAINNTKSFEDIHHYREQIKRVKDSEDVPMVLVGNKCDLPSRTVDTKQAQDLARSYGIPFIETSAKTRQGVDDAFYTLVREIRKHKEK
Chain of KRAS G13D (P62937 whole entry): as the sequence (P62937 whole entry) above
In short: as §1

NRAS G12C = NRAS G12C (Homo sapiens (Human), UniProt P01111+P62937, G12C); assay: Ras-Raf (BRAF RBD) disruption / FRET / MOA assay, NRAS G12C; conditions: read-out: IC50* NRAS G12C FRET data
Chain of NRAS G12C (P01111 whole entry G12C): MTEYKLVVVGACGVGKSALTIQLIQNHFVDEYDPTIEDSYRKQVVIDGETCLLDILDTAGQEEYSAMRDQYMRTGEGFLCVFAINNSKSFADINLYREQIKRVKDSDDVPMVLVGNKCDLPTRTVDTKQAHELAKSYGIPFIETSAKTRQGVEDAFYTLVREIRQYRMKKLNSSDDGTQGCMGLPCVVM
Chain of NRAS G12C (P62937 whole entry): as the sequence (P62937 whole entry) above
In short: as §1

NRAS Q61R = NRAS Q61R (Homo sapiens (Human), UniProt P01111+P62937, Q61R); assay: Ras-Raf (BRAF RBD) disruption / FRET / MOA assay, NRAS Q61R; conditions: NRAS Q61R; Ras-Raf disruption/FRET/MOA assay; read-out: IC50* NRAS Q61R FRET data
Chain of NRAS Q61R (P01111 whole entry Q61R): as the sequence (P01111 whole entry G12C) above, with C12G, Q61R counted along it
Chain of NRAS Q61R (P62937 whole entry): as the sequence (P62937 whole entry) above
In short: (§2)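 Compounds (30 μM top final, 10-point 3-fold dilutions) incubated 3 h at 25° C with nucleotide-loaded Ras, cyclophilin A and BRAF RBD. Detection with 10 nM anti-His Eu-W1024 and 50 nM anti-GST allophycocyanin over another 1.5 h. Lowered TR-FRET ratio relative to DMSO wells gives IC50.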

NRAS WT = NRAS WT (Homo sapiens (Human), UniProt P01111+P62937); assay: Ras-Raf (BRAF RBD) disruption / FRET / MOA assay, NRAS WT; conditions: read-out: IC50* NRAS WT FRET data
Chain of NRAS WT (P01111 whole entry): as the sequence (P01111 whole entry G12C) above, with C12G counted along it
Chain of NRAS WT (P62937 whole entry): as the sequence (P62937 whole entry) above
In short: as §2

For C=CC(=O)N1CC[C@H](C(=O)N(C)[C@H](C(=O)N[C@H]2Cc3cc(O)cc(c3)-c3ccc4c(c3)c(c(-c3cc(C)ccc3[C@H](C)OC)n4CC)CC(C)(C)COC(=O)[C@@H]3CCCN(N3)C2=O)C(C)C)C1 (atropisomer, axis not shown) [Example A167], which IC50 (K-Ras G12C) is on record?
Its IC50 is 100 to 1000 nM and < 10 nM.

What about the IC50 (K-Ras G13C) of the same compound?
Its IC50 is 10 to 100 nM and 1000 to 10000 nM.

And the IC50 (KRAS G12S)?
Its IC50 is 1 to 10 µM and 0.01 to 0.1 µM.

And the IC50 (KRAS G12D)?
The IC50 was > 10 µM and 0.1 to 1 µM.

And the IC50 (KRAS G12V)?
Its IC50 is 1 to 10 µM and 0.01 to 0.1 µM.

What about the IC50 (KRAS WT) of the same compound?
The IC50 was 1000 to 10000 nM and 10 to 100 nM.

And the IC50 (KRAS G13D)?
The IC50 was 0.1 to 1 µM and > 10 µM.

And the IC50 (NRAS G12C)?
The IC50 was 100 to 1000 nM and < 10 nM.

And the IC50 (NRAS Q61R)?
The IC50 was 100 to 1000 nM.

And the IC50 (NRAS WT)?
The IC50 was 10 to 100 nM.

How did the IC50 (K-Ras G12C) turn out when CC#CC(=O)N1CCC(C(=O)N(C)[C@H](C(=O)N[C@H]2Cc3nc(cs3)-c3ccc4c(c3)c(c(-c3cccnc3[C@H](C)OC)n4CC)CC(C)(C)COC(=O)[C@@H]3CCCN(N3)C2=O)C(C)C)C1 (atropisomer, axis not shown) [Example A168] was run?
The IC50 was 100 to 1000 nM.

What about the IC50 (K-Ras G13C) of the same compound?
The IC50 was 1000 to 10000 nM.

And the IC50 (KRAS G12S)?
Its IC50 is 1 to 10 µM.

What about the IC50 (KRAS G12D) of the same compound?
The IC50 was over 10 µM.

What about the IC50 (KRAS G12V) of the same compound?
The IC50 was 1 to 10 µM.

And the IC50 (KRAS WT)?
The IC50 was 1000 to 10000 nM.

What about the IC50 (KRAS G13D) of the same compound?
The IC50 was over 10 µM.

What about the IC50 (NRAS G12C) of the same compound?
The IC50 was 1000 to 10000 nM.

What about the IC50 (NRAS Q61R) of the same compound?
Its IC50 is 1000 to 10000 nM.

What about the IC50 (NRAS WT) of the same compound?
Its IC50 is 1000 to 10000 nM.

Which results are given for C=CC(=O)N1CC[C@H](C(=O)N(C)[C@H](C(=O)N[C@H]2Cc3cccc(c3)-c3ccc4c(c3)c(c(-c3cccnc3[C@H](C)OC)n4CC(F)F)CC(C)(C)COC(=O)[C@@H]3CCCN(N3)C2=O)C(C)C)C1 (atropisomer, axis not shown) [Example A335]?
IC50 (K-Ras G12C): 100 to 1000 nM; IC50 (K-Ras G13C): 1000 to 10000 nM; IC50 (KRAS G12S): 1 to 10 µM; IC50 (KRAS G12D): > 10 µM; IC50 (KRAS G12V): 1 to 10 µM; IC50 (KRAS WT): 1000 to 10000 nM; IC50 (KRAS G13D): 1 to 10 µM; IC50 (NRAS G12C): 100 to 1000 nM; IC50 (NRAS Q61R): 1000 to 10000 nM; IC50 (NRAS WT): 1000 to 10000 nM

For C=CC(=O)N1CC[C@H](C(=O)N(C)[C@H](C(=O)N[C@H]2Cc3cc(cc(C(F)F)c3)-c3ccc4c(c3)c(c(-c3cccnc3[C@H](C)OC)n4CC)CC(C)(C)COC(=O)[C@@H]3CCCN(N3)C2=O)C(C)C)C1 (atropisomer, axis not shown) [Example A341, (3S)-1-acryloyl-N-((2S)-1-(((6^3S,4S)-2^5-(difluoromethyl)-1^1-ethyl-1^2-(2-((S)-1-methoxyethyl)pyridin-3-yl)-10,10-dimethyl-5,7-dioxo-6^1,6^2,6^3,6^4,6^5,6^6-hexahydro-1^1H-8-oxa-1(5,3)-indola-6(1,3)-pyridazina-2(1,3)-benzenacycloundecaphane-4-yl)amino)-3-methyl-1-oxobutan-2-yl)-N-methylpyrrolidine-3-carboxamide], which IC50 (K-Ras G12C) is on record?
The IC50 was 100 to 1000 nM.

And the IC50 (K-Ras G13C)?
Its IC50 is 100 to 1000 nM.

And the IC50 (KRAS G12S)?
Its IC50 is 1 to 10 µM.

What about the IC50 (KRAS G12D) of the same compound?
Its IC50 is 1 to 10 µM.

What about the IC50 (KRAS G12V) of the same compound?
Its IC50 is 1 to 10 µM.

And the IC50 (KRAS WT)?
Its IC50 is 1000 to 10000 nM.

What about the IC50 (KRAS G13D) of the same compound?
Its IC50 is 1 to 10 µM.

And the IC50 (NRAS G12C)?
The IC50 was 100 to 1000 nM.

And the IC50 (NRAS Q61R)?
Its IC50 is 1000 to 10000 nM.

And the IC50 (NRAS WT)?
Its IC50 is 1000 to 10000 nM.

Which IC50 (K-Ras G12C) does the source give for C=CC(=O)N1CC(OC[C@H](C(=O)N[C@H]2Cc3cccc(c3)-c3ccc4c(c3)c(c(-c3cccnc3[C@H](C)OC)n4CC(F)(F)F)CC(C)(C)COC(=O)[C@@H]3CCCN(N3)C2=O)C(C)C)C1 (atropisomer, axis not shown) [Example A344] here?
The IC50 was 10 to 100 nM.

What about the IC50 (K-Ras G13C) of the same compound?
Its IC50 is 100 to 1000 nM.

And the IC50 (KRAS G12S)?
Its IC50 is 1 to 10 µM.

And the IC50 (KRAS G12D)?
The IC50 was over 10 µM.

And the IC50 (KRAS G12V)?
Its IC50 is 1 to 10 µM.

And the IC50 (KRAS WT)?
The IC50 was 1000 to 10000 nM.

And the IC50 (KRAS G13D)?
The IC50 was 1 to 10 µM.

What about the IC50 (NRAS G12C) of the same compound?
Its IC50 is 10 to 100 nM.

And the IC50 (NRAS Q61R)?
Its IC50 is 1000 to 10000 nM.

And the IC50 (NRAS WT)?
Its IC50 is 1000 to 10000 nM.

Which results are given for C=CC(=O)N1CC(OC[C@H](C(=O)N[C@H]2Cc3cc(cc(C(F)F)c3)-c3ccc4c(c3)c(c(-c3cccnc3[C@H](C)OC)n4CC)CC(C)(C)COC(=O)[C@@H]3CCCN(N3)C2=O)C(C)C)C1 (atropisomer, axis not shown) [Example A345]?
IC50 (K-Ras G12C): 1000 to 10000 nM; IC50 (K-Ras G13C): 1000 to 10000 nM; IC50 (KRAS G12S): > 10 µM; IC50 (KRAS G12D): > 10 µM; IC50 (KRAS G12V): > 10 µM; IC50 (KRAS WT): > 10000 nM; IC50 (KRAS G13D): > 10 µM; IC50 (NRAS G12C): 1000 to 10000 nM; IC50 (NRAS Q61R): > 10000 nM; IC50 (NRAS WT): > 10000 nM

Which results are given for C=CC(=O)N1CC2(COCCN2C(=O)N(C)[C@H](C(=O)N[C@H]2Cc3nc(cs3)-c3ccc4c(c3)c(c(-c3cccnc3[C@H](C)OC)n4CC)CC(C)(C)COC(=O)[C@@H]3CCCN(N3)C2=O)C(C)C)C1 (atropisomer, axis not shown) [Example A352]?
IC50 (K-Ras G12C): 10 to 100 nM; IC50 (K-Ras G13C): > 10000 nM; IC50 (KRAS G12S): > 10 µM; IC50 (KRAS G12D): > 10 µM; IC50 (KRAS G12V): > 10 µM; IC50 (KRAS WT): 1000 to 10000 nM; IC50 (KRAS G13D): > 10 µM; IC50 (NRAS G12C): 10 to 100 nM; IC50 (NRAS Q61R): 1000 to 10000 nM; IC50 (NRAS WT): 1000 to 10000 nM
